Measured values reported in publication PMC5640650, “NatD promotes lung cancer progression by preventing histone H4 serine phosphorylation to activate Slug expression” (Nature Communications, 2017).

Legend:
[1] = tested on: CK2α; assay: Slug expression after CK2α RNA interference, H1299 cells; type: cell-based, human; settings: Scr and NatD-KD H1299 cells, particularly in NatD-KD cells
Text: Fig. 7 Downregulation of Nt-acetylation of histone H4 facilitates nuclear accumulation of CK2α and its binding to histone H4 in lung cancer cells. a Representative confocal scanning images of CK2α localization in Scr and H1299 cells (left panel). The staining intensity of CK2α was quantified by software ImageJ from NIH (right diagram). Scale bars, 5 μm. […] Equal peptide biotinylated on C terminus is shown by dot blot analysis with streptavidin (middle panel). […] IgG served as a negative control. Results are shown as mean ± s.d. from three independent experiments; two-tailed Student’s t-test, **P < 0.01 compared with the indicated control. g Quantitative real-time PCR analysis of mRNA levels of CK2α and Slug normalized to GAPDH in Scr and NatD-KD H1299 cells in the absence or presence of siRNA to CK2α. NC, siRNA mimics negative control. Data are mean ± s.d. of three independent experiments; Student’s t-test, *P < 0.05, **P < 0.01 compared with the indicated control. h Western blot analysis of indicated proteins from Scr and NatD-KD H1299 cells in the absence or presence of siRNA to CK2α.
siRNA against CK2α and negative control (NC) siRNA were synthesized by RiboBio Co. Ltd (Gaungzhou, China).

[2] = tested on: H1299 cells; assay: TGF-β1-induced EMT experiment (morphology), H1299 cells; type: cell-based, human; settings: Scr H1299 cells, TGF-β1
Text: Fig. 4 Silencing NatD suppresses cancer cell EMT by downregulating Slug. a Representative phase contrast images of Scr and NatD-KD H1299 cells treated with TGF-β1. Data are representative of three independent experiments. Scale bar, 100 μm. b Quantitative real-time PCR analysis of mRNA levels of indicated key EMT-related genes in Scr and NatD-KD H1299 cells normalized to GAPDH in the absence or presence of TGF-β1. Results are shown as mean ± s.d. of three independent experiments. Two-tailed Student’s t-test was used. **P < 0.01 or *P < 0.05 compared with the indicated control. c Western blot analysis of indicated protein levels in Scr and NatD-KD H1299 cells in the absence or presence of TGF-β1. GAPDH served as a loading control. Data are representative of three independent experiments. d Immunofluorescence analysis of Scr and NatD-KD H1299 cells in the absence or presence of TGF-β1 stained for E-cadherin and N-cadherin. […] (bottom panels) Cells were counted in at least four random microscope fields (×100 magnification) for the corresponding assays; migration and invasion are expressed as a percentage of control. […] Two-tailed Student’s t-test was used. **P < 0.01 compared with the indicated control. g Quantitative real-time PCR analysis of the mRNA levels of NatD and indicated key EMT-related genes (normalized to GAPDH) in Scr cells, NatD-KD cells, and NatD-KD + Slug cells. […]

Row | Substance | Slug expression after CK2α knockdown [1] | Slug expression after CK2α knockdown ([1]; listed as knockdown of CK2α by RNA interference) | morphology on TGF-β1 treatment, Scr cells [2]
1 | CK2α siRNA: siRNA against CK2α: 5′-GAAUUAGAUCCACGUUUCA-3′ (chemistry not given here) | greatly activated | significantly increased | 
2 | TGF-β1: TGF-β1 used to induce EMT [reference compound] |  |  | developed a spindle-like appearance and mesenchymal morphology
